# Results as given in patent US6818649B2, “Chromenylmethyl pyrimidinediamines as antibacterial agents” (Basilea Pharmaceutica AG, priority 2000, dated 2004).
# Tests used:
# [1] = system: Streptococcus pneumoniae 1/1, Trimethoprim- and Penicillin-resistant, Serotype 6; clinical isolate; assay: MIC against Streptococcus pneumoniae 1/1; format: cell-based; settings: read-out: MIC Spn1/1
# Experimental: (§1) The following Table contains inhibitory concentrations determined in the above test for representative members of the class of compound defined by formula I. The following microorganisms were tested: […]
# Col. 1: MIC Spn1/1; μg/ml (Streptococcus pneumoniae 1/1, Trimethoprim- and Penicillin-resistant, Serotype 6; clinical isolate, stored at −80° C.)
# Lit.: H. Locher et al., Can. J. Infect. Dis.6: Suppl. C, p 469C.
# [2] = system: Staphylococcus aureus 101, MRSA and Trimethoprim-resistant; clinical isolate; assay: MIC against Staphylococcus aureus 101; format: cell-based; settings: read-out: MIC Sa101
# Experimental: as §1
# Col. 2: MIC Sa101; μg/ml (Staphylococcus aureus 101, MRSA^*)— and Trimethoprim-resistant; clinical isolate, stored at −80° C.)
# ^*) MRSA=Methicillin Resistant Staphylococcus Aureus
# [3] = molecular target: purified DHFR of the strain 157/4696 (highly trimethoprim-resistant; clinical isolate) of Staphylococcus aureus (Staphylococcus aureus, UniProt P13955); assay: biochemical
# Description: The inhibition of the enzyme was taken as a measurement for the antibacterial activity.
# [4] = molecular target: T1, purified DHFR of strain Sp1/1 of Streptococcus pneumoniae (Streptococcus pneumoniae, UniProt Q54801); settings: read-out: DHFR Spn1/1 (IC50); purified DHFR of S. pneumoniae strain Spn1/1; IC50 determined graphically
# T1 sequence (Q54801 1-168): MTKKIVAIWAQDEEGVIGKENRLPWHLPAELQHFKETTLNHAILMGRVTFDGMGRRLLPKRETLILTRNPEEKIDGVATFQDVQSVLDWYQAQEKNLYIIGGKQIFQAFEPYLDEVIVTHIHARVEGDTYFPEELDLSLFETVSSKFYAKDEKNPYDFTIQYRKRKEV
# Description: 3: DHFR Spn1/1; μM—the IC50-values in μM against the purified DHFR of the above strain Sp1/1 of Streptococcus pneumoniae.
smiles,measurement,setting,value
"CCOc1cc(Cc2cnc(N)nc2N)cc2c1OC(C)(C)C=C2c1cccc(F)c1 [Example 34, 5-[8-Ethoxy-4-(3-fluoro-phenyl)-2,2-dimethyl-2H-chromen-6-ylmethyl]-pyrimidine-2,4-diamine]",melting point,,185 to 186 °C
"COc1cc(Cc2cnc(N)nc2N)cc2c1OC(C)(C)C=C2CO [Example 5, [6-(2,4-Diamino-pyrimidin-5-ylmethyl)-8-methoxy-2,2-dimethyl-2H-chromen-4-yl]-methanol]",melting point,,239 to 240 °C
"COc1cc(Cc2cnc(N)nc2N)cc(OC)c1OC [Trimethoprim, reference compound]",MIC,[1],> 32 µg/mL
same,MIC,[2],32 µg/mL
"CCOc1cc(Cc2cnc(N)nc2N)cc2c1OC(C)(C)C=C2C(C)(O)CC (centres unmarked) [Example 44, 2-[6-(2,4-Diamino-pyrimidin-5-ylmethyl)-8-ethoxy-2,2-dimethyl-2H-chromen-4-yl]-butan-2-ol]",melting point,,127 to 128 °C
"CCOc1cc(Cc2cnc(N)nc2N)cc(OCC)c1-n1cccc1 [Epiroprim, reference compound]",MIC,[1],4 µg/mL
same,MIC,[2],16 µg/mL
same,IC50,[3],2000 nM
"COc1cc(Cc2cnc(N)nc2N)cc2c1OC1(C=C2)CCCCC1 [Example 31, 5-[(8-Methoxyspiro[2H-1-benzopyran-2,1′-cyclohexan]-6-yl)methyl]-2,4-pyrimidine-diamine]",melting point,,181 to 182 °C
"CCOc1ccc(C2=CC(C)(C)Oc3c(OCC)cc(Cc4cnc(N)nc4N)cc32)cc1 [Example 52, 5-[8-Ethoxy-4-(4-ethoxy-phenyl)-2,2-dimethyl-2H-chromen-6-ylmethyl]-pyrimidine-2,4-diamine]",melting point,,186 to 188 °C
"CCOc1cc(Cc2cnc(N)nc2N)cc2c1OC(C)(C)C=C2CC [Example 9, 5-(8-Ethoxy-4-ethyl-2,2-dimethyl-2H-chromen-6-ylmethyl)-pyrimidine-2,4-diamine]",melting point,,222 to 225 °C (dec.)
same,MIC,[1],1 µg/mL
same,IC50,[4],12 nM
same,MIC,[2],4 µg/mL
same,IC50,[3],670 nM
"COc1cc(Cc2cnc(N)nc2N)cc2c1OC(C)(C)C=C2SC [Example 4, 5-(8-Methoxy-2,2-dimethyl-4-methylsulfanyl-2H-chromen-6-ylmethyl)-pyrimidine-2,4-diamine]",MIC,[1],4 µg/mL
same,IC50,[4],78 nM
same,MIC,[2],2 µg/mL
same,IC50,[3],88 nM
"COc1cc(Cc2cnc(N)nc2N)cc2c1OC1(C=C2Br)CCOCC1 [Example 21, 5-[(4-Bromo-2′,3′,5′,6′-tetrahydro-8-methoxyspiro[2H-1-benzopyran-2,4′-[4H]pyran]-6-yl)-methyl]-2,4-pyrimidinediamine]",MIC,[1],4 µg/mL
same,IC50,[4],52 nM
same,MIC,[2],1 µg/mL
same,IC50,[3],150 nM
"CCOc1cc(Cc2cnc(N)nc2N)cc2c1OC(C)(C)C=C2Cl [Example 59, 5-(4-Chloro-8-ethoxy-2,2-dimethyl-2H-chromen-6-ylmethyl)-pyrimidine-2,4-diamine]",melting point,,197 to 199 °C
"CCOc1cc(Cc2cnc(N)nc2N)cc2c1OC(C)(C)C=C2Br [Example 7, 5-(4-Bromo-8-ethoxy-2,2-dimethyl-2H-chromen-6-ylmethyl)-pyrimidine-2,4-diamine]",MIC,[1],0.5 µg/mL
same,IC50,[4],0.33 nM
same,MIC,[2],0.5 µg/mL
same,IC50,[3],110 nM
"COc1cc(Cc2cnc(N)nc2N)cc2c1OC(C)(C)C=C2c1cccs1 [Example 51, 5-(8-Methoxy-2,2-dimethyl-4-thiophen-2-yl-2H-chromen-6-ylmethyl)-pyrimidine-2,4-diamine]",melting point,,> 260 °C
"CCOc1cc(Cc2cnc(N)nc2N)cc2c1OC(C)(C)C=C2C(C)(C)O [Example 43, 2-[6-(2,4-Diamino-pyrimidin-5-ylmethyl)-8-ethoxy-2,2-dimethyl-2H-chromen-4-yl]-propan-2-ol]",melting point,,209 to 210 °C
CCOc1cc(Cc2cnc(N)nc2N)cc2c1OC(C)(C)C=C2[Si](C)(C)C,melting point,,189 to 190 °C
"COc1cc(Cc2cnc(N)nc2N)cc2c1OC(C)(C)C=C2c1ccccc1 [Example 42, 5-(8-Methoxy-2,2-dimethyl-4-phenyl-2H-chromen-6-ylmethyl) -pyrimidine-2,4-diamine]",melting point,,> 260 °C
"CCOc1cc(Cc2cnc(N)nc2N)cc2c1OC(C)(C)C=C2c1ccc(F)cc1 [Example 35, 5-[8-Ethoxy-4-(4-fluoro-phenyl)-2,2-dimethyl-2H-chromen-6-ylmethyl]-pyrimidine-2,4-diamine]",melting point,,204 to 205 °C (dec.)
"COc1cc(Cc2cnc(N)nc2N)cc2c1OC(C)(C)C=C2c1cccc(F)c1 [Example 33, 5-[4-(3-Fluoro-phenyl)-8-methoxy-2,2-dimethyl-2H-chromen-6-ylmethyl]-pyrimidine-2,4-diamine]",melting point,,267 °C (dec.)
"CCOc1cc(Cc2cnc(N)nc2N)cc2c1OC(C)(C)C=C2C#CC(C)O (centres unmarked) [Example 15, 4-[6-(2,4-Diamino-pyrimidin-5-ylmethyl)-8-ethoxy-2,2-dimethyl-2H-chromen-4-yl]-but-3-yn-2-ol]",melting point,,218 to 219 °C
"CCOc1cc(Cc2cnc(N)nc2N)cc2c1OC(C)(C)C=C2c1ccsc1 [Example 37, 5-(8-Ethoxy-2,2-dimethyl-4-thiophen-3-yl-2H-chromen-6-ylmethyl)-pyrimidine-2,4-diamine]",melting point,,217 °C (dec.)
"CCOc1cc(Cc2cnc(N)nc2N)cc2c1OC(C)(C)C=C2c1cccc(NC(C)=O)c1 [Example 49, N-{3-[6-(2,4-Diamino-pyrimidin-5-ylmethyl)-8-ethoxy-2,2-dimethyl-2H-chromen-4-yl]-phenyl}-acetamide]",melting point,,145 °C (dec.)
"CCOc1cc(Cc2cnc(N)nc2N)cc2c1OC(C)(C)C=C2CO [Example 13, [6-(2,4-Diamino-pyrimidin-5-ylmethyl)-8-ethoxy-2,2-dimethyl-2H-chromen-4-yl]-methanol]",melting point,,187 to 189 °C
"C=C(C)C1=CC(C)(C)Oc2c(OCC)cc(Cc3cnc(N)nc3N)cc21 [Example 45, 5-(8-Ethoxy-4-isopropenyl-2,2-dimethyl-2H-chromen-6-ylmethyl)-pyrimidine-2,4-diamine]",melting point,,188 to 189 °C
"COc1cc(Cc2cnc(N)nc2N)cc2c1OC(C)(C)C=C2Br [Example 2, 5-(4-Bromo-8-methoxy-2,2-dimethyl-2H-chromen-6-ylmethyl) -pyrimidine-2,4-diamine]",MIC,[1],4 µg/mL
same,IC50,[4],52 nM
same,MIC,[2],1 µg/mL
same,IC50,[3],150 nM
"CCOc1cc(Cc2cnc(N)nc2N)cc2c1OC(C)(C)C=C2c1ccc(OC)c(OC)c1 [Example 48, 5-[4-(3,4-Dimethoxy-phenyl)-8-ethoxy-2,2-dimethyl-2H-chromen-6-ylmethyl]-pyrimidine-2,4-diamine]",melting point,,191 to 192 °C
"CCOc1cc(Cc2cnc(N)nc2N)cc2c1OC(C)(C)C=C2c1cccnc1 [Example 50, 5-(8-Ethoxy-2,2-dimethyl-4-pyridin-3-yl-2H-chromen-6-ylmethyl) -pyrimidine-2,4-diamine]",melting point,,145 °C (dec.)
"COc1cc(Cc2cnc(N)nc2N)cc2c1OC(C)(C)C=C2C#CCO [Example 46, 3-[6-(2,4-Diamino-pyrimidin-5-ylmethyl)-8-methoxy-2,2-dimethyl-2H-chromen-4-yl]-prop-2-yn-1-ol]",melting point,,236 to 237 °C
"CCOc1cc(Cc2cnc(N)nc2N)cc2c1OC(C)(C)C=C2c1cccc(N)c1 [Example 56, 5-[4-(3-Amino-phenyl)-8-ethoxy-2,2-dimethyl-2H-chromen-6-ylmethyl]-pyrimidine-2,4-diamine]",melting point,,196 to 198 °C (dec.)
"COc1cc(Cc2cnc(N)nc2N)cc2c1OC(C)(C)C=C2c1cccc([N+](=O)[O-])c1 [Example 53, 5-[8-Methoxy-2,2-dimethyl-4-(3-nitro-phenyl)-2H-chromen-6-ylmethyl]-pyrimidine-2,4-diamine]",melting point,,253 to 254 °C
"CCOc1cc(Cc2cnc(N)nc2N)cc2c1OC(C)(C)C=C2 [Example 19, 5-(8-Ethoxy-2,2-dimethyl-2H-chromen-6-ylmethyl)-pyrimidine-2,4-diamine]",melting point,,184 to 186 °C
"CCC1=CC(C)(C)Oc2c(OC)cc(Cc3cnc(N)nc3N)cc21 [Example 3, 5-(4-Ethyl-8-methoxy-2,2-dimethyl-2H-chromen-6-ylmethyl)-pyrimidine-2,4-diamine]",melting point,,256 to 257 °C
"CCOc1cc(Cc2cnc(N)nc2N)cc2c1OC(C)(C)C=C2c1ccncc1 [Example 47, 5-(8-Ethoxy-2,2-dimethyl-4-pyridin-4-yl-2H-chromen-6-ylmethyl)-pyrimidine-2,4-diamine]",melting point,,223 to 226 °C
"COc1cc(Cc2cnc(N)nc2N)cc2c1OC(C)(C)C=C2c1ccc(F)cc1 [Example 32, 5-[4-(4-Fluoro-phenyl)-8-methoxy-2,2-dimethyl-2H-chromen-6-ylmethyl]-pyrimidine-2,4-diamine]",MIC,[1],> 8 µg/mL
same,IC50,[4],190 nM
same,MIC,[2],> 8 µg/mL
same,IC50,[3],80 nM
"CCOc1cc(Cc2cnc(N)nc2N)cc2c1OC(C)(C)C=C2c1cccs1 [Example 36, 5-(8-Ethoxy-2,2-dimethyl-4-thiophen-2-yl-2H-chromen-6-ylmethyl)-pyrimidine-2,4-diamine]",melting point,,213 to 214 °C (dec.)
